In paper PMC7909954 (eLife, 2021):
Read-outs that look alike come from different tables or passages of the source.

Legend:
mMOR [1] = target: T1, mMOR (Mus musculus, UniProt P42866)
MOR [2] = target: T2, MOR (Homo sapiens, UniProt P35372)
KOR [3] = target: T3, KOR (Homo sapiens, UniProt P41145)
Y312W-hKOR [4] = target: T4, Y312W-hKOR (Homo sapiens, UniProt P41145, Y312W)
rKOR [5] = target: T5, rKOR (Rattus norvegicus, UniProt P34975)
MOR [6] = target: T2, MOR; experiment: cell-based
KOR [7] = target: T3, KOR; experiment: cell-based
DOR [8] = target: T6, DOR (Homo sapiens, UniProt P41143); experiment: cell-based
T6 sequence (P41143 whole entry): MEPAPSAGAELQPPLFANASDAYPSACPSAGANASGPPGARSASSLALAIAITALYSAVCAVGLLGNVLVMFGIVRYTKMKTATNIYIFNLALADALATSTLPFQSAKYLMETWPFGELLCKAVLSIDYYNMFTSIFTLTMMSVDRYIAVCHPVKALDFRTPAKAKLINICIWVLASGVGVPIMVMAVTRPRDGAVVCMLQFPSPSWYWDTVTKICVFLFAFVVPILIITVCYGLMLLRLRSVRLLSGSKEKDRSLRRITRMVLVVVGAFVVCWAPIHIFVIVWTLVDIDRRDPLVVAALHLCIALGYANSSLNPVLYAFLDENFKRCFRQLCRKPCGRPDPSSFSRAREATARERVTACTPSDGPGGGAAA

Y312W-hKOR [9] = target: T4, Y312W-hKOR; experiment: cell-based; settings: read-out: Emax% cAMP inhibition Y312W-hKOR
MOR [10] = target: T2, MOR; experiment: cell-based; remark: listed apart in the source
KOR [11] = target: T3, KOR; experiment: cell-based; remark: listed apart in the source
DOR [12] = target: T6, DOR; experiment: cell-based; remark: listed apart in the source
Y312W-hKOR [13] = target: T4, Y312W-hKOR; experiment: cell-based
mMOR [14] = target: T1, mMOR; experiment: cell-based
rKOR [15] = target: T5, rKOR; experiment: cell-based; settings: HEK-293T, read-out: Emax% G protein activation (BRET) rKOR
mDOR [16] = target: T7, mDOR (Mus musculus, UniProt P32300); experiment: cell-based
T7 sequence (P32300 whole entry): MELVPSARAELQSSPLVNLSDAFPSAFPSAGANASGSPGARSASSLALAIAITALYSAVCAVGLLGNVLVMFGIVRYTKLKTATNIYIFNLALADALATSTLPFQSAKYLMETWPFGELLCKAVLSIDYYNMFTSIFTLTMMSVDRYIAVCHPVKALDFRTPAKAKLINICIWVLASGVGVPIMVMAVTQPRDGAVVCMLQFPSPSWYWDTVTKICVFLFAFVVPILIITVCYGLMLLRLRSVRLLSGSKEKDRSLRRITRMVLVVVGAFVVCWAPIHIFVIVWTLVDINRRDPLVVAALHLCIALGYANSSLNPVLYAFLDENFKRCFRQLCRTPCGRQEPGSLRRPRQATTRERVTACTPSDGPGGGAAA

rKOR [17] = target: T5, rKOR; experiment: cell-based; settings: HEK-293T, read-out: Emax% arrestin recruitment (BRET) rKOR
mMOR [18] = target: T1, mMOR; experiment: biochemical
mDOR [19] = target: T7, mDOR; experiment: cell-based; remark: listed apart in the source
mKOR [20] = target: T8, mKOR (Mus musculus, UniProt P33534); experiment: biochemical
T8 sequence (P33534 whole entry): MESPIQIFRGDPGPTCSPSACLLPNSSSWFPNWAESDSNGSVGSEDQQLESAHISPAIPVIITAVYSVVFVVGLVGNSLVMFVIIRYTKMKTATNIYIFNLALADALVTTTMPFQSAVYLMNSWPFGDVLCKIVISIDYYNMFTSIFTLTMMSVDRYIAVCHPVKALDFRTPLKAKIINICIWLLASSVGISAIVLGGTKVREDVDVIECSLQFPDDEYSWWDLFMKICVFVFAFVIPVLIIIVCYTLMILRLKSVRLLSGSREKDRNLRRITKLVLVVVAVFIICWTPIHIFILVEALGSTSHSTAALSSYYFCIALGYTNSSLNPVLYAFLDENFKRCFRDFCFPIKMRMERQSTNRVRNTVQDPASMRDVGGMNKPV

mMOR [21] = target: T1, mMOR; experiment: biochemical; remark: listed apart in the source
mKOR [22] = target: T8, mKOR; experiment: biochemical; remark: listed apart in the source
mDOR [23] = target: T7, mDOR; experiment: biochemical; settings: read-out: Emax mDOR [35S]GTPγS
mMOR [24] = target: T1, mMOR; experiment: cell-based; parameters: expressed in transfected cells; host or cells: HEK-293T
[25] = transduction coefficient log(T/KA)

T2 sequence (P35372 whole entry): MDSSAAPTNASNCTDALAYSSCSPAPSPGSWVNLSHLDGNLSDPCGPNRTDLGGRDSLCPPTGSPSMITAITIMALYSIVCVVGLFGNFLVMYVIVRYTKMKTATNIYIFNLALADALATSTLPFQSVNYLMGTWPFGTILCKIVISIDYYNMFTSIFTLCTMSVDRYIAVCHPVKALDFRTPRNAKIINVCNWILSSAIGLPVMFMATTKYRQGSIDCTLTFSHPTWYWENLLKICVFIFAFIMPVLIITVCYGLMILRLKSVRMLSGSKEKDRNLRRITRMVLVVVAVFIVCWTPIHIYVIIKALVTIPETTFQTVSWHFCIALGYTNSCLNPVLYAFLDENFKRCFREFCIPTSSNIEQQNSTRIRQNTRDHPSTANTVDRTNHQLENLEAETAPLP
T5 sequence (P34975 whole entry): as the sequence (P33534 whole entry) above, with D11E, S17A, S51P, A308V counted along it
T3 sequence (P41145 whole entry): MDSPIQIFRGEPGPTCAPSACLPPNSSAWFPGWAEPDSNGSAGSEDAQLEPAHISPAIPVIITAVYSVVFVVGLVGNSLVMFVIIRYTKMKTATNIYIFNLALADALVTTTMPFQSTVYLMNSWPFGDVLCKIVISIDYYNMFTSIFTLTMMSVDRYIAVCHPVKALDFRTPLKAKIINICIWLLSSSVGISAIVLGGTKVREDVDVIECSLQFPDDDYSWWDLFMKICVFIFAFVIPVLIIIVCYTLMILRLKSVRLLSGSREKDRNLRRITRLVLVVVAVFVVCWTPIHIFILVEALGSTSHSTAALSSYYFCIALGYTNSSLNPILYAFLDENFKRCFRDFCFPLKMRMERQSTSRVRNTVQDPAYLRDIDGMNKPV
T1 sequence (P42866 whole entry): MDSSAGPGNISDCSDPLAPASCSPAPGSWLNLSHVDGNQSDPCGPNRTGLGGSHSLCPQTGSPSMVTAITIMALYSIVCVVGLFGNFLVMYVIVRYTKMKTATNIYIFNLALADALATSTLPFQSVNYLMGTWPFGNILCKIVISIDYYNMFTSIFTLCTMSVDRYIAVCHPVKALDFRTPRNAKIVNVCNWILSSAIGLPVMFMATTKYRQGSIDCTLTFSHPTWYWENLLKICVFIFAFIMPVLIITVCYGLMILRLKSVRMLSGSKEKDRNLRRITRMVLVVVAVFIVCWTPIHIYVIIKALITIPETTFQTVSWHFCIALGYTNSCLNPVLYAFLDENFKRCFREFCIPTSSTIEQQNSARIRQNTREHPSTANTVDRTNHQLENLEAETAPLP
T4 sequence (P41145 whole entry Y312W): as the sequence (P41145 whole entry) above, with Y312W counted along it

With O=C(N[C@@H]1CCC2C3Cc4ccc(O)c5c4[C@@]2(CCN3CC2CC2)C1O5)c1cccc(I)c1 (stereo partly drawn) [MP1202, N-((7R,12bS)−3-(Cyclopropylmethyl)−9-hydroxy-2,3,4,4a,5,6,7,7a-octahydro-1H-4,12-methanobenzofuro[3,2-e]isoquinolin-7-yl)−3-iodobenzamide] the “Emax% G protein activation (BRET) mMOR” value (mMOR [1]) was 61±1.5%, the “Bias factor (cAMP-Tango) hMOR” value (MOR [2]) was 31 and the “Log RA cAMP hMOR” value (MOR [2]) was 9.99±0.012. For the same compound, the “LogRA Tango hMOR” value (MOR [2]) was 7.24±0.002, the “ΔlogRA Tango hMOR” value (MOR [2]) was 0.058±0.002 and the “ΔlogRA cAMP hMOR” value (MOR [2]) was 1.55±0.016. For the same compound, the “ΔΔlog RA (cAMP-Tango) hMOR” value (MOR [2]) was 1.49±0.016, the “ΔΔlog RA (cAMP-Tango) hKOR” value (KOR [3]) was -0.19±0.072 and the “Log RA cAMP hKOR” value (KOR [3]; [25]) was 11.88±0.050. The “LogRA Tango hKOR” value (KOR [3]; [25]) was 10.30±0.004, the “ΔlogRA Tango hKOR” value (KOR [3]; vs U50,488h) was 1.856±0.006 and the “ΔlogRA cAMP hKOR” value (KOR [3]; vs U50,488h) was 1.66±0.072. The “Log RA cAMP Y312W-hKOR” value (Y312W-hKOR [4]) was 10.63±0.005, the “LogRA Tango Y312W-hKOR” value (Y312W-hKOR [4]) was 8.091±0.051 and the “ΔΔlog RA (cAMP-Tango) Y312W-hKOR” value (Y312W-hKOR [4]) was 1.53±0.073. For the same compound, the “Bias factor (cAMP-Tango) Y312W-hKOR” value (Y312W-hKOR [4]; vs U50,488h) was 34, the “ΔlogRA Tango Y312W-hKOR” value (Y312W-hKOR [4]; vs U50,488h) was 0.532±0.073 and the “ΔlogRA cAMP Y312W-hKOR” value (Y312W-hKOR [4]; vs U50,488h) was 2.062±0.007. The “Log RA BRET-G rKOR” value (rKOR [5]) was 9.906±0.088, the “LogRA BRET-Arr rKOR” value (rKOR [5]) was 8.791±0.171 and the “ΔΔlog RA (BRETG-BRETArr) rKOR” value (rKOR [5]) was -0.399±0.27. For the same compound, the “ΔlogRA BRET-G rKOR” value (rKOR [5]; vs U50,488h) was 1.594±0.117, the “ΔlogRA BRET-arr rKOR” value (rKOR [5]; vs U50,488h) was 1.993±0.239 and the EC50 (MOR [6]; EC50 cAMP inhibition hMOR) was 0.077 nM. For the same compound, the Emax (MOR [6]; HEK-293T, read-out: Emax% cAMP inhibition hMOR) was 92 ± 1.4%, the EC50 (KOR [7]; EC50 cAMP inhibition hKOR) was 0.00139 nM and the Emax (KOR [7]; HEK-293T, read-out: Emax% cAMP inhibition hKOR) was 97.9 ± 2.5%. It also gave an EC50 (DOR [8]; EC50 cAMP inhibition hDOR) of 8.18 nM, an Emax (DOR [8]; HEK-293T, read-out: Emax% cAMP inhibition hDOR) of 99 ± 2.2% and an Emax (Y312W-hKOR [9]) of 101 ± 1.5%. It also gave an EC50 (MOR [10]) of 26.8 nM, an Emax (MOR [10]; HTLA, read-out: Emax% arrestin recruitment (Tango) hMOR) of 53 ± 2% and an EC50 (KOR [11]; EC50 arrestin recruitment (Tango) hKOR) of 0.0457 nM. The Emax (KOR [11]; HTLA, read-out: Emax% arrestin recruitment (Tango) hKOR) was 101 ± 1%, the EC50 (DOR [12]; EC50 arrestin recruitment hDOR, Tango) was 18.1 nM and the Emax (DOR [12]; HTLA, read-out: Emax% arrestin recruitment hDOR) was 26 ± 3.1%. For the same compound, the EC50 (Y312W-hKOR [13]) was 3.4 nM, the Emax (Y312W-hKOR [13]; read-out: Emax% arrestin recruitment (Tango) Y312W-hKOR) was 55 ± 2.6% and the EC50 (mMOR [14]; EC50 G protein activation (BRET) mMOR) was 0.63 nM. It also gave an Emax (mMOR [14]; HEK-293T, read-out: Emax% G protein activation (BRET) mMOR) of 70%, an Emax (rKOR [15]) of 104 ± 2% and an EC50 (mDOR [16]; EC50 G protein activation (BRET) mDOR) of 7.03 nM. The Emax (mDOR [16]; HEK-293T, read-out: Emax% G protein activation (BRET) mDOR) was 103 ± 4.6%, the EC50 (mDOR [16]; pEC50 G protein activation (BRET) mDOR, ± SEM) was 7.94 nM and the Emax (rKOR [17]) was 77 ± 5%. For the same compound, the Ki (mMOR [18]) was 0.071 ± 0.031 nM, the EC50 (mDOR [19]; EC50 arrestin recruitment (BRET) mDOR) was 525 nM and the Emax (mDOR [19]; HEK-293T, read-out: Emax% arrestin recruitment (BRET) mDOR) was 26 ± 2.3%. For the same compound, the Ki (mKOR [20]) was 0.11 ± 0.064 nM, the EC50 (mMOR [21]; EC50 mMOR [35S]GTPγS, ± SEM) was 0.32 ± 0.03 nM and the Emax (mMOR [21]; read-out: Emax mMOR [35S]GTPγS) was 68 ± 1%. The EC50 (mKOR [22]; EC50 mKOR [35S]GTPγS, ± SEM) was 0.13 ± 0.02 nM, the Emax (mKOR [22]; read-out: Emax mKOR [35S]GTPγS) was 94 ± 5% and the Emax (mDOR [23]) was 71 ± 2%. For the same compound, the EC50 (mMOR [24]) was 3140 nM, the “Emax% arrestin recruitment (BRET) mMOR” value (mMOR [24]) was 53 ± 1.6% and the Emax (mMOR [24]; HEK-293T, read-out: Emax% arrestin recruitment (BRET) mMOR) was 57%.
